Key:
ferrets = experiment: Test of side-effect related to emesis in ferrets; assay type: in vivo; conditions: ferret, 7 mg/kg
Protocol: Male ferrets having the body weight of about 1.5˜2 kg, purchased from Marshal, were classified into the groups: control, yohimbine, #102-500 mg/kg and #102-1000 mg/kg treated groups. For three animals in each group, the medicine dissolved in 0.5% CMC at a concentration of 500 and 1000 mg/kg was orally administered. During 3 hours after then, the number of vomiting for each animal, and the number of animals showing salivation and diarrhea were measured by visual observation.

PDE-4 = conditions: background art; read-out: IC50 of inhibiting PDE-4; cited from earlier work
Human PDE-4d = target: T1, Human PDE-4d (Homo sapiens, UniProt Q08499); experiment: Inhibition of PDE-4 activity ([3H]cAMP hydrolysis, recombinant catalytic domain); assay type: biochemical; conditions: for IC50: PDE4d 1 nM, cAMP 250 nM, 34° C., 45 minutes, read-out: IC50 against PDE-4 enzyme; for activity on inhibiting PDE-4 (in words): comment on Table 2
T1 construct: The catalytic domain of PDE4d was cloned to pGEX4T3 (APBiotech) as GST fusion expression vector; GST (N); made in house; host or cells: E. coli BL21, DE3
T1 sequence (Q08499 386-715 limits assumed): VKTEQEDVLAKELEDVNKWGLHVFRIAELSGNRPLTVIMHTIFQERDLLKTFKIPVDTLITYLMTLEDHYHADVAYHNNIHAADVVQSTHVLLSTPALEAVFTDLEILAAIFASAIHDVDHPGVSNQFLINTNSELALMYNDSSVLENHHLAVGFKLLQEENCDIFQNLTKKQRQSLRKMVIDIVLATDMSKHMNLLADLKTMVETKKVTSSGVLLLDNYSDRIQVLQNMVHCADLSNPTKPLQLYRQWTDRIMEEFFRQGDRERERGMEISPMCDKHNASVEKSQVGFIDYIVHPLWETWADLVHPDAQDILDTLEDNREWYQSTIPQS
Protocol: Experiment of inhibiting PDE-4 activity was carried out by modifying the method of Loughney (Loughney et al., Journal of Biological Chemistry, 1996, 271(2), 796-806). Human PDE-4d prepared by means of gene recombination technology was used as PDE-4d
The catalytic domain of PDE4d was cloned to pGEX4T3 (APBiotech) as GST fusion expression vector, and then PDE4d gene was transformed to E. coli BL21, DE3. The strain was cultured at 37° C. in LB medium, and when OD reached about 0.3˜0.5, the temperature was lowered to 18° C. to induce expression of PDE4d by using 0.5 mM IPTG. After 15 hours from induction of the expression, cells with PDE4d expressed were recovered. The cells were suspended in a buffer solution (50 mM Tris, pH 8.0, 0.4M NaCl, 5 mM DTT), and crushed, centrifuged and purified. The columns used for the purification were Q-cephalose (APBiotech), Glutanione-cephalose (APBiotech) and Superdex200 gel permeation chromatography (APBiotech), in this order.
In order to measure the ability of individual compound to inhibit PDE4d activity, PDE4d 1 nM and cAMP (Sigma) 250 nM as substrate were added to the reaction buffer (50 mM Tris-HCl (pH 7.5) and 4 mM MgCl2), and individual compound obtained from Example 1 was added in a concentration from 1 to 50 μM thereto, and the mixture was reacted at 34° C. for 45 minutes. Total reaction solution was 60 μl. As to cAMP, a mixture with the ratio of [^3H]cAMP (Amersham, 1 μCi/μl) to cAMP (hot:cold, that is, isotope:non-isotope) being 1:200 was used. Then, the reaction was quenched by heating at 95° C. for 2 minutes. After cooling the mixture for 3 minutes, 1 mg/ml of Snake Venome (Sigma V0376) (30 μl) was added thereto. After reacting at 34° C. for 30 minutes, 30 μl of the reaction mixture was added to 250 μl of DOWEX 1×2-100 ion exchange resin (Aldrich, previously mixed with distilled water in a ratio of 1:1.6) by portions, and the mixture was vigorously stirred for 2 minutes. After settling the resin down, the supernatant (130 μl) was added to 2 ml of scintillation cocktail (Packard), and the mixture was thoroughly mixed, and then measured by using beta-counter. With respect to the enzyme activity of control group (experiment carried out without adding compound of Chemical Formula (1)), the concentration of each test compound to inhibit 50% of enzyme activity was determined as IC50.

[1] = tested on: OVA-sensitized C57BL/6J mice; experiment: Airway hyper-responsiveness (Penh, whole body plethysmography) after methacholine in OVA-sensitized mice; assay type: in vivo, mouse; conditions: oral, 100 mg/kg; versus Roflumilast 100 mg/kg oral
Protocol: (§1) For animal test in vivo, 8-9 week old male C57BL/6J mice having body weight of 20-25 g were used as the test animal. For sensitization and challenge of airway and lung by ovalbumin (OVA), OVA mixed with Al(OH)3 was administered intraperitoneally to cause first sensitization, and second sensitization after 10 days from the first sensitization. After 6 days from the second sensitization, the animals were inhaled with 5% OVA via nebulizer for 3 days. Administration of medicine to the sensitized mice was carried out intraorally (po), three times one hour before every inhalation of OVA. To the control group, 0.5% CMC was administered.
The analysis of airway hyper-responsiveness (AHR) was carried out by using a whole body plethysmographer with a living animal.
After 48 hours from inhalation of OVA, the animal was inhaled with methacholine (Mch) by means of nebulizer. Responsiveness of airway due to Mch was evaluated by enhanced pause (Penh) value on capability of respiration through airway by means of whole body plethysmography, and compared with control medicine.

[2] = tested on: OVA-sensitized C57BL/6J mice; experiment: Eosinophil peroxidase activity (EPO activity) in bronchoalveolar washing of OVA-sensitized mice; assay type: in vivo, mouse; conditions: oral, 5, 50, 100 and 300 mg/kg
Protocol: as §1
In order to observe cell activity and cell constitution in the washing solution of mouse bronchus alveolus, the animal was inhaled with OVA. After 62 hours, the mouse was anesthetized and the cervicothoracic region was open. A tube containing 0.8 ml of PBS was inserted to the bronchus, and PBS was injected. After massaging the chest for about 30 seconds, cell suspension was obtained from the lung. The cells obtained were centrifuged with 400×g. […] For the measurement of EPO activity, the cell suspension ([…]) was reacted with 0.1 mM OPD, 0.05 M Tris-HCl (pH 8.0), Triton X-100 and 1 mM H2 O2, and then absorbance at 492 nm was measured.

SMILES | IC50 (Human PDE-4d) [nM] | further results
COC(=O)[C@@H]1[C@H]2C[C@H]3c4[nH]c5ccccc5c4CCN3C[C@@H]2CC[C@@H]1O [yohimbine] |  | animals showing salivation and diarrhea (ferrets): 66%; vomiting symptoms (number of vomiting per animal) (ferrets; observed in all ferrets used): average twice
O=C(Nc1c(Cl)cncc1Cl)c1ccc(OC(F)F)c(OCC2CC2)c1 [Roflumilast] |  | IC50 (PDE-4): 0.8 nM
FC(F)Oc1ccc(-c2ccnc3nc(-c4cccnc4)nn23)cc1OCC1CC1 [Compound 112, 3-[7-{3-(cyclopropylmethoxy)-4-(difluoromethoxy)phenyl}-[1,2,4]triazolo[1,5-a]pyrimidin-2-yl]-pyridinium chloride] | 33 | 
[O-][n+]1cccc(-c2nc3nccc(-c4ccc(OC(F)F)c(OCC5CC5)c4)n3n2)c1 [Compound 102, 3-[7-{3-(cyclopropylmethoxy)-4-(difluoromethoxy)phenyl}-[1,2,4]triazolo[1,5-a]pyrimidine-2-yl]-pyridine-N-oxide] | 74 | effect of treating asthma: degree of airway contraction by enhanced pause (Penh) value [1]: far superior effect of treating asthma to the control compound, Roflumilast; eosinophil peroxidase activity (EPO activity) [2]: excellent effect
N#Cc1cccc(-c2nc3nccc(-c4ccc(OC(F)F)c(OCC5CC5)c4)n3n2)c1 [Compound 115, 2-(3-Cyanophenyl)-7-[3-(cyclopropylmethoxy)-4-(difluoromethoxy)phenyl]-[1,2,4]triazolo[1,5-a]pyrimidine] | 10 | activity on inhibiting PDE-4 (in words) (Human PDE-4d): excellent activity on inhibiting PDE-4
COc1cc(-c2nc3nccc(-c4ccc(OC(F)F)c(OCC5CC5)c4)n3n2)ccc1C [Compound 134, 7-[3-(Cyclopropylmethoxy)-4-(difluoromethoxy)phenyl]-2-(3-methoxy-4-methylphenyl)-[1,2,4]triazolo[1,5-a]pyrimidine] | 40 | 
FC(F)Oc1ccc(-c2ccnc3nc(-c4cccnc4Cl)nn23)cc1OCC1CC1 [Compound 105, 2-(2-chloropyridin-3-yl)-7-[3-(cyclopropylmethoxy)-4-(difluoromethoxy)phenyl]-[1,2,4]triazolo[1,5-a]pyrimidine] | 52 | 
N#Cc1ccc(-c2nc3nccc(-c4ccc(OC(F)F)c(OCC5CC5)c4)n3n2)cn1 [Compound 123, 2-(2-cyano-pyridin-5-yl)-7-[3-(cyclopropylmethoxy)-4-(difluoromethoxy)phenyl]-[1,2,4]triazolo[1,5-a]pyrimidine] | 170 | 
NC(=O)c1ccc(-c2nc3nccc(-c4ccc(OC(F)F)c(OCC5CC5)c4)n3n2)cn1 [Compound 139, 5-[7-{3-(cyclopropylmethoxy)-4-(difluoromethoxy)phenyl}-[1,2,4]triazolo[1,5-a]pyrimidin-2-yl]pyridine-2-carboxamide] | 46 | 
COc1ccc(-c2ccnc3nc(-c4cccc(C#N)c4)nn23)cc1OC1CCCC1 [Compound 129, 7-[3-(Cyclopentoxy)-4-methoxyphenyl]-2-(3-cyanophenyl)-[1,2,4]triazolo[1,5-a]pyrimidine] | 13 | 
[O-][n+]1ccc(-c2nc3nccc(-c4ccc(OC(F)F)c(OCC5CC5)c4)n3n2)cc1 [Compound 110, 4-[7-{3-(Cyclopropylmethoxy)-4-(difluoromethoxy)phenyl}-[1,2,4]triazolo[1,5-a]pyrimidine-2-yl]-pyridine-N-oxide] | 160 | 
O=C(O)c1ccc(-c2nc3nccc(-c4ccc(OC(F)F)c(OCC5CC5)c4)n3n2)cn1 [Compound 137, 5-[7-{3-(cyclopropylmethoxy)-4-(difluoromethoxy)phenyl}-[1,2,4]triazolo[1,5-a]pyrimidin-2-yl]pyridine-2-carboxylic acid] | 200 | 
Nc1cccc(-c2nc3nccc(-c4ccc(OC(F)F)c(OCC5CC5)c4)n3n2)c1 [Compound 119, 2-(3-Aminophenyl)-7-[3-(cyclopropylmethoxy)-4-(difluoromethoxy)phenyl]-[1,2,4]triazolo[1,5-a]pyrimidine] | 6 | activity on inhibiting PDE-4 (in words) (Human PDE-4d): excellent activity on inhibiting PDE-4
FC(F)Oc1ccc(-c2ccnc3nc(-c4ccncc4)nn23)cc1OCC1CC1 [Compound 103, 7-[3-(Cyclopropylmethoxy)-4-(difluoromethoxy)phenyl]-2-pyridin-4-yl-[1,2,4]triazolo[1,5-a]pyrimidine] | 79 | 
FC(F)Oc1ccc(-c2ccnc3nc(-c4ccc(Cl)nc4)nn23)cc1OCC1CC1 [Compound 104, 2-(6-chloropyridin-3-yl)-7-[3-(cyclopropylmethoxy)-4-(difluoromethoxy)phenyl]-[1,2,4]triazolo[1,5-a]pyrimidine] | 160 | 
[O-][n+]1cccc(-c2nc3nccc(-c4ccc(OC(F)F)c(OCC5CC5)c4)n3n2)c1Cl [Compound 109, 3-[7-{3-(Cyclopropylmethoxy)-4-(difluoromethoxy)phenyl}-[1,2,4]triazolo[1,5-a]pyrimidine-2-yl]-2-Chloropyridine-N-oxide] | 160 | 
COC(=O)c1ccc(-c2nc3nccc(-c4ccc(OC(F)F)c(OCC5CC5)c4)n3n2)cn1 [Compound 138, 5-[7-{3-(cyclopropylmethoxy)-4-(difluoromethoxy)phenyl}-[1,2,4]triazolo[1,5-a]pyrimidin-2-yl]pyridine-2-carboxylic acid methyl ester] | 180 | 

— patent US8143262B2, “7-(3′,4′-Dialkoxyphenyl)[1,2,4]-triazolo[1,5-A]pyrimidine compounds, process for preparing thereof, and pharmaceutical composition for treating or preventing asthma, chronic obstructive pulmonary disease, arthritis, atopic dermatitis, tumor and degenerative brain diseases comprising the same” (Korea Research Institute of Chemical Technology, priority 2007, dated 2012)
